Data set [1] is described as follows: solubility of the product in solvents. The format is physicochemical. Here is the method:
Naphthalene-2,6-disulfonyl chloride (6.2 g, 0.02 mol) is dissolved in 100 ml dimethylformamide; to the solution is added, in 2-3 portions over about a minute, a solution of 3-(4-aminobenzenesulfonyl)acrylonitrile in 50 ml dimethylformamide containing 6 ml triethylamine (8.4 g, 0.04 mol). The temperature rises to 35° C by the exothermic reaction. The reaction mixture is maintained at room temperature for 2 hours and filtered to separate triethylamine hydrochloride therefrom. Addition of chloroform to the filtrate precipitates the product which, after washing with ethanol/water and drying, is in the form of a slightly off-white powder having a melting point of 312° C. […] It is naphthalene-2,6-bis-sulfon-[4-(2-cyanoethenesulfonyl)anilide]: ##SPC42##

In data set [2] the test system is Staphylococcus aureus ATCC 6538 DR. Briefly: button assay, antibacterial activity. Particulars: for MIC: Staphylococcus aureus, ATCC6538, 24 h, read-out: Antibacterial Activity S.aureus, minimum inhibitory concentration. The format is cell-based. Here is the method: (§1) In the test program, the minimum inhibitory concentrations of the respective test compounds against various Gram positive and Gram negative bacteria were determined, employing the "button assay" method. The test organisms utilized were standard cultures of Staphylococcus aureus ATCC 6538 DR, a penicillin resistant Gram positive bacterium; Bacillus subtilis ATCC 9525, a spore-forming Gram positive bacillus; and Salmonella typhosa ATCC 6539, a Gram negative bacterium.
(§2) In the tests the respective compounds were dissolved in a suitable solvent, usually acetone or dimethylsulfoxide, to give solutions with known concentrations of active material. The highest concentration was ordinarily 1000 ppm (parts per million) [0.1%], and dilutions were made in suitable steps down to 1 ppm. Penicillin test buttons of filter paper having a diameter of 13 mm (socalled "Peniassay" buttons) were added to each solution within a test tube and left submerged for five minutes. They were then removed and left to dry on paper towels under sterile conditions. A laminar flow sterile cabinet equipped with ultraviolet lamps operating under positive air pressure was utilized for this purpose.
(§3) An 18-24 hour old nutrient broth culture (standard 1.5% nutrient agar) prepared in conventional manner from a slant and having passed through at least three consecutive daily transfers was used for inoculation. Melted and cooled sterile agar (45° C) was inoculated with the respective broth cultures by addition of 20 ml broth per liter of agar. The agar was then dispensed into Petri dishes (20 ml per plate) under sterile conditions and allowed to harden.
(§4) The test buttons were placed on the surface of the hardened agar and the plates incubated for 24 hours at 37° C. Where, on inspection, a clear zone of inhibition appeared around the button, inhibition of growth was presumed. Where growth touched the button there was no inhibition. For each of the test compounds, the lowest concentration showing a clear zone is reported as the inhibitory concentration in the following table. […]

The test system of data set [3] is Aspergillus niger ATCC 6257. Briefly: agar incorporation test, antifungal activity. The format is cell-based. Particulars: lowest concentration showing no growth or sporulation, four days at 28° C; for MIC: Aspergillus niger, ATCC6257, 96 h, read-out: Antifungal Activity A. niger, minimum inhibitory concentration. As to the method:
The anti-fungal activity of the test compounds was determined employing the "agar incorporation" technique, utilizing spores from Aspergillus niger ATCC 6257 as a representative organism. Test solutions were prepared as described above in acetone or dimethylsulfoxide. A source of carbon agar such as Mycophil Agar was used. The agar was melted and cooled and placed in a constant temperature water bath at 45° C + 3° C. About 13-14 ml of the agar was then poured into a sterile Petri dish, the required amount of test solution to give the desired concentration immediately added thereto, and the dish rotated and swirled by hand to obtain a uniform mixture before the agar hardened.
The hardened plates were inoculated with the test organism by fishing spores from a 7-14 day old slant with the inocculating needle and spotting the spores on the plates, usually in several places. The inoculated plates were incubated for four days in an incubator maintained at 28° C +2° C and with a relative humidity of 95%+.
The lowest concentration of each test compound showing no growth or sporulation of the test organism was taken as the minimum inhibitory concentration and is reported in the following tabulation.
(§5) The button assay and agar incorporation tests were also utilized to determine the corresponding inhibitory concentrations of various control materials, viz., the following well known commercial antimicrobials and fungicides: hexachlorophene, tribromosalicylanilide, trichlorocarbanilide,Captan (N-(trichloromethylthio)4cyclohexene-1,2-dicarboximide) and Zineb (zinc ethylenebis[dithiocarbamate]). The minimum inhibitory concentration of each of the various control materials against the respective organisms is indicated in Table IV below: […]

Data set [4] has as its system Bacillus subtilis ATCC 9525. Briefly: button assay, antibacterial activity. The format is cell-based. Particulars: 24 hours at 37° C; for MIC: Bacillus subtilis, ATCC9525, lowest concentration showing a clear zone of inhibition, read-out: Antibacterial Activity B.subtilis, minimum inhibitory concentration. As to the method:
as §1, §2, §3
The test buttons were placed on the surface of the hardened agar and the plates incubated for 24 hours at 37° C. Where, on inspection, a clear zone of inhibition appeared around the button, inhibition of growth was presumed. Where growth touched the button there was no inhibition. For each of the test compounds, the lowest concentration showing a clear zone is reported as the inhibitory concentration in the following table.
as §5

For data set [5], the system named is Salmonella typhosa ATCC 6539. Briefly: button assay, antibacterial activity. The data set is classed as cell-based. Particulars: for MIC: Salmonella enterica, read-out: Antibacterial Activity S.typhosa, minimum inhibitory concentration. As to the method: as §1
The highest concentration was ordinarily 1000 ppm (parts per million) [0.1%], and dilutions were made in suitable steps down to 1 ppm. Penicillin test buttons of filter paper having a diameter of 13 mm (socalled "Peniassay" buttons) were added to each solution within a test tube and left submerged for five minutes. They were then removed and left to dry on paper towels under sterile conditions. A laminar flow sterile cabinet equipped with ultraviolet lamps operating under positive air pressure was utilized for this purpose.
as §3, §4

The nature of data set [6]: stability of the recovered product. The data set is classed as physicochemical. Particulars: recovered by filtration and drying at low temperature under vacuum. As to the method: 10.4 g (0.05 mol) of 2-cyanovinyl 4-aminophenyl sulfone is dissolved in 100 ml of acetone and the solution cooled to 0° C. […] of phosphorus trichloride dissolved in 20 ml of acetone is added dropwise with stirring. After about 40 minutes the reaction mixture is poured into ice water with vigorous stirring. The intermediate initially formed hydrolyzes easily upon the addition of water to form di-4-(2-cyanoethenesulfonyl)anilidophosphine oxide, which can be recovered by filtration and drying at low temperature under vacuum.

Setting [7] is: button assay, lowest concentration showing a clear zone of inhibition, 24 hours at 37° C.

SMILES strings stand for the structures. ≈ marks a conversion by molar mass, not a printed value. Read-outs that look alike come from different tables or passages of the source.

Turning to `N#CC=CS(=O)(=O)c1ccc(NS(=O)(=O)c2ccc3cc(S(=O)(=O)Nc4ccc(S(=O)(=O)C=CC#N)cc4)ccc3c2)cc1` [Example 37, naphthalene-2,6-bis-sulfon-[4-(2-cyanoethenesulfonyl)anilide]], in data set [1] (dimethylformamide, dimethylsulfoxide), the “solubility in dimethylformamide and dimethylsulfoxide” value is “soluble”. Moreover, in data set [1] (ethanol, chloroform, acetone), the “solubility in ethanol, chloroform and acetone” value is reported as “almost insoluble”. Besides, the MIC amounted to 20 µg/mL (≈ 29.9 µM) in data set [2], 1000 µg/mL (≈ 1500 µM) in data set [3], 50 µg/mL (≈ 74.8 µM) in data set [4] and 20 µg/mL (≈ 29.9 µM) in data set [5] (24 h).
With `N#CC=CS(=O)(=O)c1ccc(NP(=S)(Nc2ccc(S(=O)(=O)C=CC#N)cc2)c2ccccc2)cc1` [Example 59, PHENYL-DI-[4-(2-CYANOETHENESULFONYL)ANILIDO]PHOSPHINE SULFIDE], the MIC stood at 50 µg/mL (≈ 90.2 µM) in data set [2], 500 µg/mL (≈ 902 µM) in data set [3], 50 µg/mL (≈ 90.2 µM) in data set [4] and 50 µg/mL (≈ 90.2 µM) in data set [5] (setting [7]).
Regarding `N#CC=CS(=O)(=O)c1ccc(NP(=O)(Nc2ccc(S(=O)(=O)C=CC#N)cc2)N(CCCl)CCCl)cc1` [Example 52, di-(2-chloroethyl)amido-di-4-(2-cyanoethenesulfonylanilido)phosphine oxide], the “Antibacterial Activity S.aureus, minimum inhibitory concentration” value in data set [2] (setting [7]) is 10 ppm. In addition, the “Antifungal Activity A. niger, minimum inhibitory concentration” value in data set [3] was determined as 100 ppm. Moreover, the “Antibacterial Activity B.subtilis, minimum inhibitory concentration” value in data set [4] (lowest concentration showing a clear zone of inhibition) was determined as 10 ppm. In addition, the “Antibacterial Activity S.typhosa, minimum inhibitory concentration” value in data set [5] (setting [7]) worked out at 10 ppm.
`N#CC=CS(=O)(=O)c1ccc(NS(=O)(=O)C=Cc2ccccc2)cc1` [Example 10, 3-[4-(2-phenylethenesulfonamido)benzenesulfonyl]acrylonitrile]: the MIC in data set [2] is 5 µg/mL (≈ 13.4 µM); in data set [3], > 1000 µg/mL; in data set [4], 5 µg/mL (≈ 13.4 µM); in data set [5] (24 h), 5 µg/mL (≈ 13.4 µM).
On to `N#CC=CS(=O)(=O)c1ccc(NP(=O)(Nc2ccc(S(=O)(=O)C=CC#N)cc2)Nc2ccc(S(=O)(=O)C=CC#N)cc2)cc1` [Example 45, TRIS-N,N', N"-4-(2-CYANOETHENESULFONYL)PHENYL PHOSPHORAMIDE], for which the MIC in data set [2] came to 50 µg/mL (≈ 74.8 µM); in data set [3], 300 µg/mL (≈ 449 µM); in data set [4] it was 5 µg/mL (≈ 7.48 µM); in data set [5] (24 h) it was 50 µg/mL (≈ 74.8 µM).
With `N#CC=CS(=O)(=O)c1ccc(N[PH](=O)Nc2ccc(S(=O)(=O)C=CC#N)cc2)cc1` [Example 57, di-4-(2-cyanoethenesulfonyl)anilidophosphine oxide], the MIC in data set [2] worked out at 20 µg/mL (≈ 43.2 µM); in data set [3] it was 100 µg/mL (≈ 216 µM); in data set [4], 20 µg/mL (≈ 43.2 µM); in data set [5] (24 h) it was 20 µg/mL (≈ 43.2 µM). Further, the “stability of the product” value in data set [6] was “somewhat unstable”.
`N#CC=CS(=O)(=O)c1ccc(NS(=O)(=O)c2ccc3ccccc3c2)cc1` [Example 35, 3-[4-(2-naphthalenesulfonamido)benzenesulfonyl]acrylonitrile]: the MIC is 10 µg/mL (≈ 25.1 µM) in data set [2], > 1000 µg/mL in data set [3], 5 µg/mL (≈ 12.5 µM) in data set [4] and 5 µg/mL (≈ 12.5 µM) in data set [5] (24 h).
For `COc1ccc(S(=O)(=O)Nc2ccc(S(=O)(=O)C=CC#N)cc2)cc1OC` [Example 29.1, 3-[4-(3,4-dimethoxybenzenesulfonamido)benzenesulfonyl]acrylonitrile], the MIC in data set [2] came to 20 µg/mL (≈ 49 µM); in data set [3] it was 300 µg/mL (≈ 734 µM); in data set [4] it was 10 µg/mL (≈ 24.5 µM); in data set [5] (24 h), 10 µg/mL (≈ 24.5 µM).
`N#CC=CS(=O)(=O)c1ccc(NP(=O)(OCC(Br)CBr)OCC(Br)CBr)cc1` (stereo not shown) [Example 56, 0,0-bis(2,3-dibromopropyl)-N-4-(2-cyanoethenesulfonyl)phenyl phosphoramide]: the MIC in data set [2] was 10 µg/mL (≈ 14.5 µM); in data set [3], 100 µg/mL (≈ 145 µM); in data set [4] it was 10 µg/mL (≈ 14.5 µM); in data set [5] (setting [7]), 10 µg/mL (≈ 14.5 µM).
For `N#CC=CS(=O)(=O)c1ccc(NS(=O)(=O)c2cccc(S(=O)(=O)Nc3ccc(S(=O)(=O)C=CC#N)cc3)c2)cc1` [Example 33, N.N'-bis-[4-(2-cyanoethenesulfonyl)phenyl]-1,3-phenylenesulfonamide], the MIC in data set [2] is 300 µg/mL (≈ 485 µM); in data set [3], > 1000 µg/mL; in data set [4], 10000 µg/mL (≈ 16200 µM); in data set [5] (24 h) it was 100 µg/mL (≈ 162 µM).

Source of the values: patent publication US3943154A, “Acylamides of beta-cyano-ethenesulfonyl substituted aminoarenes” (Sanitized Incorporated, priority 1973, dated 1976).
